Consider 4 molecules from PubChem BioAssay AID1963875 (Molecular Pharmacology Branch, DTP, NCI, 2024).

The assay deals with KRAS-mutant PDC complex spheroid viability. Put plainly: Anticancer human tumor 186277-243-T-J2-PDC patient-derived colon adenocarcinoma cell line growth inhibition [KRAS2]. To be noted: for viability, T/C: stronger effect = lower value. The source says:
Multicellular complex tumor spheroid response to RAS pathway inhibitors in combination with a targeted agents in patient-derived cell lines with oncogenic KRAS variants from multiple cancer types
A high-throughput screen of multi-cell type tumor spheroids was designed to identify active combinations of targeted small molecules and KRAS pathway inhibitors. Complex spheroids include a stromal component modeled by human endothelial cells (HUVEC) and fibroblasts modeled by human mesenchymal stem cells (MSCs). The concentration ranges selected for each drug and investigational agent were based upon clinically achievable concentrations if the clinical Cmax of the agent was known.
Compounds. The drugs and investigational agents: BI-3406 (NSC825286), BAY-293 (NSC824723), batoprotafib (TNO155; NSC825523), sotorasib (AMG 510; NSC818433), MRTX1257 (NSC819558), elimusertib (BAY 1895344; NSC800525), molibresib (GSK525762; NSC774829), temuterkib (LY3214996; NSC803410), venetoclax (NSC766270), alisertib (NSC759677), olaparib (NSC753686), talazoparib (NSC767125), erdafitinib (NSC781556), ipatasertib (NSC767898), cabozantinib (NSC761068), nintedanib (NSC756659), abemaciclib (NSC768073), docetaxel (NSC628503), trametinib (NSC758246), and sapanisertib (NSC764658) were obtained from the National Cancer Institute (NCI) Developmental Therapeutics Program Chemical Repository. The FDA-approved anticancer drug set is available from the Developmental Therapeutics Program. […] The stock solutions were prepared in dimethyl sulfoxide (DMSO, Sigma-Aldrich, St. Louis, MO, cat. D2650) at 800-fold the tested concentration and stored at -70 degrees C prior to their use. All drugs and investigational agents were tested over a range starting from a high concentration at or near the clinical Cmax and decreasing in half-log increments. If the clinical Cmax for an agent had not been determined, the highest concentration tested was 10 microM.
Cell Culture. All cells were maintained in an incubator at 37 degrees C and 5% CO2 with 95% humidity. The PDC lines were cultured according to standard operating procedures established by the NCI PDMR (https://pdmr.cancer.gov/sops/default.htm). Briefly, all PDCs were thawed and cultured in Matrigel-coated flasks prepared with a working solution of 1X Ham's F-12 nutrient mix, without supplementation (Invitrogen, Waltham, MA, cat. 11765054), 100 U/mL penicillin-streptomycin (Invitrogen, cat. 15140122), and 2.5% Matrigel (Corning Inc., Corning, NY, cat. 354248) for the first three passages. All PDCs were cultured in complete DMEM/F-12 media containing advanced DMEM/F-12 (Invitrogen, cat. 12634028), 4.9% defined fetal bovine serum, heat inactivated (HyClone Laboratories Inc., Logan, UT, cat. SH30070.03HI), 389 ng/mL hydrocortisone (Sigma-Aldrich, cat. H4001), 9.7 ng/mL human EGF recombinant protein (Invitrogen, cat. PHG0313), 23.4 microg/mL adenine (Sigma-Aldrich, cat. A2786), 97.3 U/mL penicillin-streptomycin (Invitrogen, cat. 15140122), 1.9 mM L-glutamine (Invitrogen, cat. 25030081), and 9.7 microM Y-27632 dihydrochloride (Tocris Bioscience, Bristol, United Kingdom, cat. 1254). The PDCs were cultured in complete DMEM/F12 media without 9.7 microM Y-27632 dihydrochloride for at least two passages prior to the screen. The established cell line HOP-62 was cultured in RPMI 1640 medium, HEPES (Invitrogen, cat. 22400105) with 10% defined fetal bovine serum (HyClone Laboratories Inc., cat. SH30070.03) and 2 mM L-glutamine (Invitrogen, cat. 25030081). The pooled donor HUVEC were cultured in endothelial cell growth medium 2 (PromoCell, Heidelberg, Germany, cat. C-22011) and the hMSC were cultured in mesenchymal stem cell growth medium 2 (PromoCell, cat. C-28009). For all experiments, HUVEC and hMSC were used at passages </=5, while the malignant cell lines were used at passages </=15. […]

The mark [1] stands for this setting: compound alone, run of 07/12/2021.
[2] abbreviates: compound alone, run of 07/19/2021.
[3] abbreviates: compound alone, run of 07/26/2021.

“And” between values parts separate entries of the source, which are not always exact repeats. Identical values can stand only once. Some results are limits rather than exact numbers.
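For viability, T/C in this document: viability read after seven days of compound exposure; 100% = DMSO vehicle-treated spheroids so lower means less viable.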

What is called viability, T/C is the result in the treated group divided by that in the control group, in per cent. By IC50 is commonly meant the concentration needed to halve the response being measured. Regarding `C=CC(=O)N1CCN(c2nc(=O)n(-c3c(C)ccnc3C(C)C)c3nc(-c4c(O)cccc4F)c(F)cc23)C(C)C1` (stereo not given), the viability, T/C was 98.1% [middle of 17 runs] (compound 0.1 µM) and 96.4% [middle of 17 runs] (compound 1 µM). Also, the IC50 is > 10 µM and 9.92 µM and 2.89 µM under setting [1]; > 10 µM and 8.52 µM under setting [2]; greater than 10 µM under setting [3].
`CNCc1ccccc1-c1csc(C(C)Nc2nc(C)nc3cc(OC)c(OC)cc23)c1` (stereo not given): the viability, T/C runs as follows: (compound 0.1 µM) 100% [middle of 17 runs]; (compound 0.316 µM) 98.9% [middle of 17 runs]; (compound 10 µM) 0.16% [middle of 12 runs]. In addition, the IC50 was 5.56 µM [middle of 6 runs] under setting [1], 2.27 µM [middle of 5 runs] under setting [2] and 5.05 µM [middle of 6 runs] under setting [3].
For the molecule `COC(=O)c1ccc2c(C(=Nc3ccc(N(C)C(=O)CN4CCN(C)CC4)cc3)c3ccccc3)c(O)[nH]c2c1`, the viability, T/C by setting is: (compound 0.0316 µM) 93.8% [middle of 5 runs]; (compound 0.1 µM) 104% [middle of 5 runs]; (compound 0.316 µM) 99.4% [middle of 5 runs]; (compound 1 µM) 107% [middle of 5 runs]; (compound 10 µM) 16% [middle of 5 runs]. Further, the half-maximal inhibitory concentration (IC50) (curve of compound) was 3.62 µM [middle of 4 runs].
Regarding `COc1cc2nc(C)nc(NC(C)c3cc(N)cc(C(F)(F)F)c3)c2cc1OC1CCOC1` (stereo not given), the viability, T/C (compound 1 µM) is 101% [middle of 17 runs]. The concentration for half-maximal inhibition (IC50) is, setting by setting: under setting [1], greater than 10 µM; under setting [2], greater than 10 µM.
